Measured values: patent publication US8071795B2, “HIF inhibitors” (Emory University, priority 2005, dated 2011)

Columns and labels:
[1] = molecular target: HIF-1/HRE pathway; experiment: LN229-HRE-AP hypoxia-inducible alkaline phosphatase reporter bioassay; type: cell-based, human
Experimental: Genetically engineered LN229 cells (a human glioma cell line) which stably express the alkaline phosphatase reporter gene under the control of six copies of a hypoxia-responsive element was used to identify small-molecule inhibitors of the HIF-1/HRE pathway. The engineered LN229 cell line is disclosed in U.S. Provisional Patent Application No. 60/235,283, which is incorporated by reference in its entirety herein. Cells were seeded at 40,000 cells per well in 96-well plates. Compounds of interest with 2,2-dimethylbenzopyran motifs were added and the plates were incubated under hypoxia (1% O2, 5% CO2 and 94% N2) at 37° C. for 24 h. Cells were then washed with phosphate-buffered saline and incubated with p-nitrophenyl phosphate at 37° C. for 30 min. The reaction was terminated by adding 3 N NaOH and the plates were read for absorbance at 405 nm. The anti-HIF-1/HRE activity of each compound was quantified as the decrease of percentage of alkaline phosphatase (AP) activity compared to the untreated control cells. […]
To screen for small molecule HIF-1 pathway inhibitors, a cell-based assay was established by stably transfecting a glioma cell line with a hypoxia-inducible alkaline phosphatase (AlkPhos) expression vector (LN229-HRE-AP). Exposure of the cells to hypoxia (1% O2) induced reporter gene expression, which could be detected and quantitated by a […] reaction. […]

[2] = tested on: HIF-1α; experiment: Western blot of total protein levels in LN229 cell extracts; type: cell-based, human
Experimental: (§1) FIG. 11 illustrates an analysis of specificity of KCN1. LN229 cells were pre-treated with KCN1 (25 uM) for 1 h and then put in 1% O2 for […]. Cell extracts were analyzed by Western blot for levels of total proteins (FIG. 11 (A)) and phospho-proteins by multiplex Western FIG. 11 (B)). It should be noted that a strong increase of HIF-1α levels under hypoxia is inhibited by KCN1.
(§2) The above extracts were further analyzed to detect changes in the activity states of key signal transduction proteins by multiplex Western (Kinexus). This method allows the simultaneous screening of 37 different phospho-proteins involved in key cell signaling pathways. […] KCN1 inhibits only HIF-1α under hypoxic conditions (FIG. 11 (C)).

[3] = tested on: phospho-proteins involved in key cell signaling pathways; experiment: multiplex Western (Kinexus) of phospho-proteins in LN229 cell extracts; type: cell-based, human; details: 27 of 37 phospho-proteins
Experimental: as §1, §2

[4] = tested on: HIF-1 alpha mRNA; experiment: Northern blot of HIF-1 alpha mRNA; type: cell-based; details: with or without KCN1 treatment
Experimental: To examine whether KCN1 might interfere with mRNA synthesis or stability Northern blots were performed.
(§3) To gain insight into the possible mechanism of action of KCN1 a number of experiments listed below were performed. First, an experiment focused on whether KCN1 might block HIF at the mRNA or protein level was performed. To examine whether KCN1 might interfere with HIF-1 alpha mRNA synthesis or stability, Northern blots were performed. […] Second, an experiment focused on whether KCN1 might interfere with the ability of HIF to translocate to the nucleus was performed by examining its location by microscopy in LN229 cells. Under hypoxia KCN1 inhibits HIF accumulation, confirming the Western blot results and no HIF is seen in the nucleus or cytoplasm.

[5] = tested on: HIF; experiment: microscopy of HIF location and HRE-luciferase activity in LN229 cells; type: cell-based, human
Source text: To examine whether KCN1 might interfere with the ability of HIF to translocate to the nucleus, its location was examined by microscopy in LN229 cells containing a stably integrated HRE-luciferase reporter construct. Under hypoxia KCN1 inhibits HIF accumulation and no HIF is seen in the nucleus or cytoplasm. […] Measurement of HIF-induced luciferase activity (lower panel) confirms that HIF is transcriptionally active in the presence of KCN1 in the COCl2 treated cells.
as §3
In addition, experiments focused on whether HIF present in the nucleus of the KCN1 and CoCl2 treated cells was transcriptionally active were performed. […]

[6] = tested on: Akt (Serine 473 phosphorylation), PI3K signaling pathway; experiment: Akt phosphorylation in response to IGF1; type: cell-based; details: 1, 3, and 6 hrs
Experimental: In addition, experiments focused on whether HIF present in the nucleus of the KCN1 and CoCl2 treated cells was transcriptionally active were performed. […] Third, an experiment focused on whether KCN1 might interfere with HIF synthesis through the PI3 kinase/Akt/mTOR pathway that controls mRNA translation was performed. The effects of KCN1 on the phosphorylation of Akt in response to growth factor IGF1 (insulin growth factor 1) were examined. […] This finding might have therapeutic implications independently of the activities of KCN1 on HIF.

[7] = tested on: topoisomerase II; experiment: kinetoplast DNA decatenation assay; type: biochemical
Experimental: FIG. 15 illustrates that HIF inhibitor F2 (Psammaplin analogue) but not KCN1 inhibits topoisomerase II activity. Purified topo II activity with F2 or KCN1 was analyzed under normoxia using kDNA decatenation assay. To examine the activity, 1% agarose gel with ethidium bromide was used and it enabled to detect catenated kDNA and decatenated kDNA. In lanes 5 and 9, inhibition of topoisomerase II activity was detected as evidenced by the presence of catenated DNA.
Finally, an experiment focused on whether some of the HIF inhibitors might have an effect on topoisomerase function was performed. It has been reported in the literature that some HIF inhibitors may act via a topoisomerase-dependent mechanism (Rapisarda A et al 2004, Cancer Res 64-1475-82). KCN1 and psammaplin analogue F2 (FIG. 8) were tested and their inhibitory effect on topoisomerase II using a kinetoplast DNA decatenation assay (FIG. 15) was examined.

[8] = experimental LogP; type: physicochemical
Source text: Four grams of KCN1 have been synthesized for initial PK and anti-tumor studies. FIG. 10 illustrates an illustrative embodiment of a method for forming KCN1.

[9] = PK study in U87MG-EGFRvIII brain tumor model, HPLC; type: in vivo, mice; details: iv. 35 mg/kg; 6, 18 and 24 hrs
Experimental: FIG. 18 illustrates a PK study of KCN1 in a brain tumor model. FIG. 18(A) illustrates MRI of U87MG-EGFRvIII grown in mice brain. FIG. 18(B) illustrates the kinetics of KCN1 accumulation in normal and tumoral brain after iv. injection at 35 mg/kg.
The BBB may constitute an obstacle to drug delivery. To examine whether KCN1 would reside in the brain over a longer period of time and whether it would accumulate in higher amounts in the tumor versus normal brain we carried out a preliminary PK experiment. Nude mice carrying U87MG-EGFRvIII tumors were injected iv. with KCN1 and sacrificed at 6, 18 and 24 hrs. KCN1 concentration in the brain tumor and contra-lateral normal brain was performed by HPLC.

[10] = tested on: HIF-dependent luciferase activity; experiment: pharmacodynamic BLI study in LN229 HRE-luciferase glioma xenografts; type: in vivo, mouse
Experimental: FIG. 19 illustrates a pharmacodynamic study of KCN1 in nu/nu mouse bearing LN229HRE-luci-ferase gliomas. KCN1 (2 mg) dissolved in DMSO was injected in the right hind tumor, and DMSO control in the left hind tumor. The mouse was injected with D-luciferin and imaged by BLI before FIG. 19 (C) and 5 & 28 hrs after injection. It should be noted strong reduction in HIF-dependent luciferase activity in right hind tumor at 5 hrs and partial recovery of HIF signaling after 28 hrs. (n=2).
It is well appreciated that the efficacy of anti-cancer agents in rodents is an imprecise predictor of the success of these drugs in clinical trials. Therefore, evaluating the molecular and mechanistic end points of drug treatment is an important complementary approach to early pre-clinical studies. With this in mind, we sought to determine whether our lead HIF-1 pathway inhibitor (KCN1) can reduce HIF activity in a glioma xenograft model. In a pilot study, we used a mouse bearing 4 xenografts of LN229 cells containing a stable HIF responsive luciferase reporter (size-matched medium sized tumors in the back and small ones in the front). The HIF-dependent luciferase activity in the tumors was detected by non-invasive BLI. As expected, the larger hind tumors produced the strongest luciferase signal, likely due to the increase in the hypoxic volume. […]

[11] = tested on: LN229 glioma xenograft; experiment: sc LN229 glioma xenograft growth; type: in vivo, nude mice
Experimental: FIG. 20 illustrates that KCN1 inhibits sc LN229 glioma xenograft growth. LN-229 (5×10^6) was implanted in both flanks of nude mice (8/group) and 1 week later started intraperitoneal injections of KCN1 (60 mg/kg; 5 days/week). FIG. 20(A) illustrates tumor volume over time as measured with a caliper.
(§4) KCN1 was formulated in Cremaphor/EtOH for mice delivery and determined empirically (i.e., without prior under-standing of its in vivo pharmacology) whether preliminary anti-tumorigenic effects could be observed. […] (up to 100 mg/kg) injected animals.

[12] = tolerability in injected animals; type: in vivo; details: it. and iv. (up to 100 mg/kg)
Experimental: as §4

Compound	IC50 ([1]; LN229-HRE-AP cells, hypoxia 1% O2)	inhibitory activity relative to initial HIF-inhibitor 85D5R ([1]; SAR, modifications in regions I and II)	HIF-1α protein level under hypoxia ([2]; LN229 cells, KCN1 25 uM, 1% O2, 5 hrs)	stabilization of HIF-1alpha under normoxia ([2]; induced by CoCl2, desferroxiamine or MG132)	effects on phospho-proteins with detectable phosphorylation [3]	HIF-1alpha mRNA levels [4]	luciferase activity of HRE-luciferase reporter ([5]; KCN1 and CoCl2 treated cells)	nuclear accumulation of HIF ([5]; LN229 cells, CoCl2 conditions)	IGF1-induced phosphorylation of Akt on Serine 473 [6]	phospho-Akt level [6]	topo II activity ([7]; 5-25 uM)	experimental LogP [8]	distribution between brain tumor and contra-lateral normal brain [9]	reduction of HIF-dependent luciferase activity in injected tumor ([10]; 2 mg in DMSO intratumoral, 5 hrs)	HIF-dependent luciferase activity in injected tumor ([10]; after 28 h)	weight of dissected tumors, fold less than control ([11]; 60 mg/kg intraperitoneal, 5 days/week, at termination)	tumor growth ([11]; Cremaphor/EtOH formulation)	toxicity [12]	topo II activity ([7]; 100 uM)
COc1ccc(S(=O)(=O)N(Cc2ccc3c(c2)C=CC(C)(C)O3)c2ccccc2)cc1OC [KCN1]	~4 µM	improved acitivities	strong anti-HIF-1α activity is detected	is not inhibited	< 1.5 fold	remained constant	remained active	does not interfere with nuclear accumulation	not inhibited	increase in phospho-Akt is observed	did not inhibit	3.9	preferentially accumulates in and is retained in the brain tumor	> 90%	recovered	~6 fold	strong and sustained inhibition of tumor growth	no apparent toxicity was observed	–
COc1cc([C@@H]2c3cc4c(cc3[C@@H](O[C@@H]3O[C@@H]5CO[C@@H](C)O[C@H]5[C@H](O)[C@H]3O)[C@H]3COC(=O)[C@H]23)OCO4)cc(OC)c1O [etoposide, reference compound]	–	–	–	–	–	–	–	–	–	–	–	–	–	–	–	–	–	–	inhibitory activity observed
